# Experimental data reported in ChEMBL document CHEMBL2396612 (Bioorg Med Chem Lett, 2013).
# Assays:
# Homo sapiens = organism: Homo sapiens; assay: Selectivity index, ratio of IC50 for ACAT1 (unknown origin) to IC50 for ACAT2 (unknown origin)
# [1] = target: T1, Sterol O-acyltransferase 1 (Homo sapiens, UniProt P35610); assay: Inhibition of ACAT1 (unknown origin)
# T1 sequence (P35610 whole entry): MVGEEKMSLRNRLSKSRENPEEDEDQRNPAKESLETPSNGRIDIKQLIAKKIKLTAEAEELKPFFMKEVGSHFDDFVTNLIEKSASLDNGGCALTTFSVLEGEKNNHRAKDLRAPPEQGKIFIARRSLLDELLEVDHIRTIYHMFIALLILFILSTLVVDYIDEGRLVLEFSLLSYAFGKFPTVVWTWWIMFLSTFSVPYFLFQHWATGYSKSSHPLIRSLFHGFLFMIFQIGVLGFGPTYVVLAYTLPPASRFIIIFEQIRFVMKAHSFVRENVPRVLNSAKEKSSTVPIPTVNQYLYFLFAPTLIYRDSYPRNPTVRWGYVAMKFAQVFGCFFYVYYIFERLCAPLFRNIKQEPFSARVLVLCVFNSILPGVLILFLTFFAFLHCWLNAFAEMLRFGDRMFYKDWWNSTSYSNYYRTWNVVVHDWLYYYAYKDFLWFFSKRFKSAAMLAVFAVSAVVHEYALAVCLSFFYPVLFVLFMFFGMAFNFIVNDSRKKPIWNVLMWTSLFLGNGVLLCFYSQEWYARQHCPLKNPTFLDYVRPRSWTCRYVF
# [2] = target: T2, Sterol O-acyltransferase 2 (Homo sapiens, UniProt O75908); assay: Inhibition of ACAT2 (unknown origin)
# T2 sequence (O75908 whole entry): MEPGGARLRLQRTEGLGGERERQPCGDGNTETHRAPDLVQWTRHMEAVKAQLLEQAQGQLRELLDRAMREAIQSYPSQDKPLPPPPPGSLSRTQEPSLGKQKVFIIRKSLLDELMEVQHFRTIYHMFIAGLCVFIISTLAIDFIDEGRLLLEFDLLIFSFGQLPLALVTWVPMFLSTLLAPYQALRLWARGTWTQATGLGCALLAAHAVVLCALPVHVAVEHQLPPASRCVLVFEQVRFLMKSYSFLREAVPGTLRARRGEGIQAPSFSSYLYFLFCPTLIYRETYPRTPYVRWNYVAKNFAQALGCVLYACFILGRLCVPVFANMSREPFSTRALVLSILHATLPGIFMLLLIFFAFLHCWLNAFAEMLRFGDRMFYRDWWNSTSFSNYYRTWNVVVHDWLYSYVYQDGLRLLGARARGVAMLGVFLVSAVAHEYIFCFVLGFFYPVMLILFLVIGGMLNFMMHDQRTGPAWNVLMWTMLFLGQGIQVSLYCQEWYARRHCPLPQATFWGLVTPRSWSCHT
Ratio IC50 (Homo sapiens),IC50 [1] [nM],IC50 [2] [nM],Structure (SMILES)
–,–,6.8,C[C@@]12CO[C@@H](c3ccccc3F)O[C@H]1CC[C@@]1(C)[C@H]2C[C@H](OC(=O)c2ccc(C#N)cc2)[C@@]2(C)Oc3cc(-c4cccnc4)oc(=O)c3[C@H](O)[C@H]12
478,3730,7.8,Cc1cccc([C@@H]2OC[C@@]3(C)[C@@H]4C[C@H](OC(=O)c5ccc(C#N)cc5)[C@@]5(C)Oc6cc(-c7cccnc7)oc(=O)c6[C@H](O)[C@@H]5[C@@]4(C)CC[C@@H]3O2)c1
886,6200,7,C[C@@]12CO[C@@H](c3ccccc3)O[C@H]1CC[C@@]1(C)[C@H]2C[C@H](OC(=O)c2ccc(F)cc2)[C@@]2(C)Oc3cc(-c4cccnc4)oc(=O)c3[C@H](O)[C@H]12
690,6900,10,C[C@@]12CO[C@@H](c3ccccc3)O[C@H]1CC[C@@]1(C)[C@H]2C[C@H](OC(=O)c2ccc(Br)cc2)[C@@]2(C)Oc3cc(-c4cccnc4)oc(=O)c3[C@H](O)[C@H]12
467,2800,6,C[C@@]12CO[C@@H](c3ccccc3)O[C@H]1CC[C@@]1(C)[C@H]2C[C@H](OC(=O)c2ccc(C#N)cc2)[C@@]2(C)Oc3cc(-c4cccnc4)oc(=O)c3[C@H](O)[C@H]12
836,8110,9.7,Cc1ccc([C@@H]2OC[C@@]3(C)[C@@H]4C[C@H](OC(=O)c5ccc(C#N)cc5)[C@@]5(C)Oc6cc(-c7cccnc7)oc(=O)c6[C@H](O)[C@@H]5[C@@]4(C)CC[C@@H]3O2)cc1
> 6160,> 72800,11.8,Cc1ccccc1[C@@H]1OC[C@@]2(C)[C@@H]3C[C@H](OC(=O)c4ccc(C#N)cc4)[C@@]4(C)Oc5cc(-c6cccnc6)oc(=O)c5[C@H](O)[C@@H]4[C@@]3(C)CC[C@@H]2O1
> 9920,> 71200,7.2,Cc1cccc(C)c1[C@@H]1OC[C@@]2(C)[C@@H]3C[C@H](OC(=O)c4ccc(C#N)cc4)[C@@]4(C)Oc5cc(-c6cccnc6)oc(=O)c5[C@H](O)[C@@H]4[C@@]3(C)CC[C@@H]2O1
367,5540,15.1,Cc1ccc([C@@H]2OC[C@@]3(C)[C@@H]4C[C@H](OC(=O)c5ccc(F)cc5)[C@@]5(C)Oc6cc(-c7cccnc7)oc(=O)c6[C@H](O)[C@@H]5[C@@]4(C)CC[C@@H]3O2)cc1
1520,10000,6.6,Cc1ccc([C@@H]2OC[C@@]3(C)[C@@H]4C[C@H](OC(=O)c5ccc(C#N)cc5)[C@@]5(C)Oc6cc(-c7cccnc7)oc(=O)c6[C@H](O)[C@@H]5[C@@]4(C)CC[C@@H]3O2)c(C)c1
200,9510,47.6,Cc1cccc([C@@H]2OC[C@@]3(C)[C@@H]4C[C@H](OC(=O)c5ccc(F)cc5)[C@@]5(C)Oc6cc(-c7cccnc7)oc(=O)c6[C@H](O)[C@@H]5[C@@]4(C)CC[C@@H]3O2)c1
> 1930,> 71000,36.8,COc1ccccc1[C@@H]1OC[C@@]2(C)[C@@H]3C[C@H](OC(=O)c4ccc(C#N)cc4)[C@@]4(C)Oc5cc(-c6cccnc6)oc(=O)c5[C@H](O)[C@@H]4[C@@]3(C)CC[C@@H]2O1
> 2980,> 69100,23.2,C[C@@]12CO[C@@H](c3cccc4ccccc34)O[C@H]1CC[C@@]1(C)[C@H]2C[C@H](OC(=O)c2ccc(C#N)cc2)[C@@]2(C)Oc3cc(-c4cccnc4)oc(=O)c3[C@H](O)[C@H]12
644,5800,9,C[C@@]12CO[C@@H](c3ccccc3)O[C@H]1CC[C@@]1(C)[C@H]2C[C@H](OC(=O)c2ccc(Cl)cc2)[C@@]2(C)Oc3cc(-c4cccnc4)oc(=O)c3[C@H](O)[C@H]12

# Further lines, the compound ahead of its results:
Structure (SMILES),Ratio IC50 (Homo sapiens),IC50 [1] [nM],IC50 [2] [nM]
CCCCC(=O)O[C@H]1C[C@H]2[C@]3(C)CO[C@@H](c4ccccc4C)O[C@H]3CC[C@]2(C)[C@H]2[C@@H](O)c3c(cc(-c4cccnc4)oc3=O)O[C@]12C,320,3200,10
C[C@@]12CO[C@@H](c3ccccc3)O[C@H]1CC[C@@]1(C)[C@H]2C[C@H](OC(=O)c2ccccc2F)[C@@]2(C)Oc3cc(-c4cccnc4)oc(=O)c3[C@H](O)[C@H]12,54,2700,50
C[C@@]12CO[C@@H](c3ccccc3)O[C@H]1CC[C@@]1(C)[C@H]2C[C@H](OC(=O)c2ccccc2C#N)[C@@]2(C)Oc3cc(-c4cccnc4)oc(=O)c3[C@H](O)[C@H]12,–,–,320
C[C@@]12CO[C@@H](c3ccccc3)O[C@H]1CC[C@@]1(C)[C@H]2C[C@H](OC(=O)c2ccc(C=O)cc2)[C@@]2(C)Oc3cc(-c4cccnc4)oc(=O)c3[C@H](O)[C@H]12,183,5500,30
C[C@@]12CO[C@@H](c3ccccc3)O[C@H]1CC[C@@]1(C)[C@H]2C[C@H](OC(=O)c2ccc([N+](=O)[O-])cc2)[C@@]2(C)Oc3cc(-c4cccnc4)oc(=O)c3[C@H](O)[C@H]12,232,13900,60
C[C@@]12CO[C@@H](c3ccccc3)O[C@H]1CC[C@@]1(C)[C@H]2C[C@H](OC(=O)c2cccc(Br)c2)[C@@]2(C)Oc3cc(-c4cccnc4)oc(=O)c3[C@H](O)[C@H]12,143,4300,30
CC(=O)OC[C@@]1(C)[C@@H]2C[C@H](OC(=O)c3ccc(C#N)cc3)[C@@]3(C)Oc4cc(-c5cccnc5)oc(=O)c4[C@H](O)[C@@H]3[C@@]2(C)CC[C@@H]1OC(C)=O,4620,–,–
COc1cccc(C(=O)O[C@H]2C[C@H]3[C@]4(C)CO[C@@H](c5ccccc5)O[C@H]4CC[C@]3(C)[C@H]3[C@@H](O)c4c(cc(-c5cccnc5)oc4=O)O[C@]23C)c1,61.4,4300,70
C[C@@]12CO[C@@H](c3ccccc3)O[C@H]1CC[C@@]1(C)[C@H]2C[C@H](OC(=O)c2cccc(F)c2)[C@@]2(C)Oc3cc(-c4cccnc4)oc(=O)c3[C@H](O)[C@H]12,231,3000,13
Cc1ccccc1[C@@H]1OC[C@@]2(C)[C@@H]3C[C@H](OC(=O)c4ccc(F)cc4)[C@@]4(C)Oc5cc(-c6cccnc6)oc(=O)c5[C@H](O)[C@@H]4[C@@]3(C)CC[C@@H]2O1,–,–,23
C[C@@]12CO[C@@H](c3ccccc3)O[C@H]1CC[C@@]1(C)[C@H]2C[C@H](OC(=O)c2ccccc2Cl)[C@@]2(C)Oc3cc(-c4cccnc4)oc(=O)c3[C@H](O)[C@H]12,16.2,1780,110
C[C@@]12CO[C@@H](c3ccccc3)O[C@H]1CC[C@@]1(C)[C@H]2C[C@H](OC(=O)c2cccc(C#N)c2)[C@@]2(C)Oc3cc(-c4cccnc4)oc(=O)c3[C@H](O)[C@H]12,73.3,2200,30
COc1ccc(C(=O)O[C@H]2C[C@H]3[C@]4(C)CO[C@@H](c5ccccc5)O[C@H]4CC[C@]3(C)[C@H]3[C@@H](O)c4c(cc(-c5cccnc5)oc4=O)O[C@]23C)cc1,493,6900,14
COc1ccccc1C(=O)O[C@H]1C[C@H]2[C@]3(C)CO[C@@H](c4ccccc4)O[C@H]3CC[C@]2(C)[C@H]2[C@@H](O)c3c(cc(-c4cccnc4)oc3=O)O[C@]12C,10.5,3400,320
C[C@@]12CO[C@@H](c3ccccc3)O[C@H]1CC[C@@]1(C)[C@H]2C[C@H](OC(=O)c2cccc(Cl)c2)[C@@]2(C)Oc3cc(-c4cccnc4)oc(=O)c3[C@H](O)[C@H]12,142,2700,19
CCCCC(=O)O[C@H]1C[C@H]2[C@]3(C)CO[C@@H](c4ccccc4)O[C@H]3CC[C@]2(C)[C@H]2[C@@H](O)c3c(cc(-c4cccnc4)oc3=O)O[C@]12C,200,4000,20
